The first data set in a line: Determination of the log P values by HPLC (formic acid method). The format is physicochemical. The note with it: reversed-phase HPLC column (C 18), reversed-phase column (C 18), acidic range (pH 3.4), 55° C. On the procedure:
1) Description of Method for Determination of the Log P Values (Formic Acid Method)
Eluents for determination in the acidic range (pH 3.4):
Eluent A: acetonitrile+1 ml of formic acid/liter. Eluent B: water+0.9 ml of formic acid/liter.
The lambda max values were determined in the maxima of the chromatographic signals using the UV spectra from 200 nm to 400 nm.
On to `O=C(Nc1ccn(-c2c(F)cc([N+](=O)[O-])cc2F)n1)c1ccccc1C(F)(F)F` [Compound I-1-229, N-[1-(2,6-Difluoro-4-nitrophenyl)-1H-pyrazol-3-yl]-2-(trifluoromethyl)benzamide], for which the chromatographic logP (in general, lipophilicity estimated from chromatographic retention) worked out at 2.86.

Still in this data set, the particulars now being: reversed-phase column (C 18), acidic range (pH 3.4), 55° C.
Regarding `O=C(Nc1ccn(-c2ccc(Cl)cc2Cl)n1)c1ccccc1C(F)(F)F` [Compound I-1-197], the log P (in general, a log measure of how a compound divides between an organic and an aqueous phase) came out at 3.51.
`O=C(Nc1ccn(-c2ncc(F)cc2F)n1)c1ccccc1F` [Compound I-1-493]: the “log P” value came to 2.31.
Regarding `O=C(Nc1ccn(-c2ncnc(F)c2F)n1)c1ccccc1Br` [Compound I-1-170], the “log P” value worked out at 2.46. This log P and that of the molecule before are within 0.2 log units of each other.
With `O=C(Nc1ccn(-c2ccccc2Cl)n1)c1cccnc1C(F)(F)F` [Compound I-1-42], the log partition coefficient (log P) is reported as 2.48.
With `O=C(Nc1ccn(-c2ccc(F)cc2F)n1)c1ccccc1Br` [Compound I-1-209], the “log P” value came out at 2.95.
As for `O=C(Nc1ccn(-c2cccc(Cl)c2F)n1)c1c(F)cccc1F` [Compound I-1-556], the “log P” value is recorded as 3.12.
Take `Cc1nn(C)c(C(=O)Nc2ccn(-c3ncc(F)cc3F)n2)c1[N+](=O)[O-]` [Compound I-1-447]: the lipophilicity (log P) stood at 2.03.
`O=C(Nc1ccn(-c2ncccc2C(F)(F)F)n1)c1ccccc1C(F)(F)F` [Compound I-1-422]: the “log P” value was found to be 2.72.
With `N#Cc1cc(F)ccc1-n1ccc(NC(=O)c2ccccc2I)n1` [Compound I-1-634], the log partition coefficient (log P) was found to be 2.57.
For the molecule `CS(=O)(=O)c1ccccc1-n1ccc(NC(=O)c2ccccc2C(F)(F)F)n1` [Compound I-1-179], the lipophilicity (log P) is on record as 2.13.
On to `O=C(Nc1nn(-c2ncc(F)cc2F)cc1Cl)c1ccccc1C(F)(F)F` [Compound I-1-473], for which the log partition coefficient (log P) turned out to be 2.62.
On to `O=C(Nc1ccn(-c2ccc(Cl)cc2Cl)n1)c1ccccc1C(F)(F)F` [Compound I-1-198], for which the “log P” value turned out to be 3.25.
Regarding `O=C(Nc1ccn(-c2c(F)cccc2F)n1)C1=C(C(F)(F)F)OCCS1` [Compound I-1-102], the “log P” value is recorded as 2.56.
With `O=C(Nc1cnn(-c2ccc(C(F)(F)F)cn2)n1)c1ccccc1I` [Compound I-2-43], the “log P” value was found to be 3.04.
For the molecule `O=C(Nc1ccn(-c2ncccc2F)n1)c1ccsc1I` [Compound I-1-581], the log partition coefficient (log P) was 2.30.
With `N#Cc1c(F)cccc1-n1ccc(NC(=O)c2ccccc2Cl)n1` [Compound I-1-621], the “log P” value was 2.57.
On to `O=C(Nc1ccn(-c2cccc(F)c2F)n1)c1ccccc1C(F)(F)F` [Compound I-1-64], for which the “log P” value stood at 3.02.
As to `N#Cc1cc(F)c(-n2nc(NC(=O)c3ccccc3C(F)(F)F)c3c(F)cccc32)cc1F` [Compound I-5-10], the log partition coefficient (log P) amounted to 3.26.
`Cc1cc(NC(=O)c2ccccc2C(F)(F)F)nn1-c1ccccc1Cl` [Compound I-1-347]: the log partition coefficient (log P) amounted to 2.58.
Still for that read-out and setting: to `CCC(C)n1ncc(Cl)c1C(=O)Nc1ccn(-c2c(F)cccc2F)n1` (centres unmarked) [Compound I-1-244] belongs 3.58.
Turning to `O=C(Nc1cnn(-c2ncc(F)cc2F)n1)c1ccccc1Br` [Compound I-2-68], the lipophilicity (log P) is listed as 2.27.
For the molecule `CCc1ncccc1C(=O)Nc1ccn(-c2ncc(F)cc2F)n1` [Compound I-1-490], the “log P” value worked out at 1.29.
The same measure, in the same setting: under `N#Cc1ccccc1-n1ccc(NC(=O)c2ccccc2I)n1` [Compound I-1-394] stands 2.53; under `Cc1nc(-n2ccc(NC(=O)c3ccccc3Br)n2)c(F)cc1F` [Compound I-1-442], 2.71.
As to `O=C(Nc1ccn(-c2cncc(F)n2)n1)c1cccnc1C(F)(F)F` [Compound I-1-402], the log partition coefficient (log P) amounted to 2.76.
`O=C(Nc1ccn(-c2c(F)cccc2F)n1)c1c(Cl)cccc1Cl` [Compound I-1-267]: the log partition coefficient (log P) came to 2.72.
On to `O=C(Nc1ccn(-c2cc(Cl)ccc2Cl)n1)c1ccccc1Br` [Compound I-1-119], for which the “log P” value is given as 3.40.
Still for that read-out and setting: to `O=C(Nc1ccn(-c2ncccc2Cl)n1)c1ccsc1I` [Compound I-1-566] belongs 2.46.

The values are drawn from patent US9802899B2, “Heterocyclic compounds as pesticides” (BAYER CROPSCIENCE AG, priority 2012, dated 2017).
